According to patent publication US11957687B2 (REGENERON PHARMACEUTICALS, INC., priority 2019, dated 2024):

Experiments:
Type in all cases: biochemical
HSD17B13 = HSD17B13 (Homo sapiens (Human), UniProt Q7Z5P4); assay: HSD17B13 enzymatic inhibition assay (150 nM or 50 nM HSD17B13); details: 50 nM HSD17B13; read-out: Inhibition of 50 nM of HSD17B13 IC50
HSD17B1 = HSD17B1 (Homo sapiens (Human), UniProt P14061); assay: HSD17B1 enzymatic blocking assay; details: 25 μM Estradiol, 500 μM NAD; read-out: Inhibition of HSD17B1 IC50
HSD17B1, sequence (P14061 other isoform, or with tags, fused parts or gaps): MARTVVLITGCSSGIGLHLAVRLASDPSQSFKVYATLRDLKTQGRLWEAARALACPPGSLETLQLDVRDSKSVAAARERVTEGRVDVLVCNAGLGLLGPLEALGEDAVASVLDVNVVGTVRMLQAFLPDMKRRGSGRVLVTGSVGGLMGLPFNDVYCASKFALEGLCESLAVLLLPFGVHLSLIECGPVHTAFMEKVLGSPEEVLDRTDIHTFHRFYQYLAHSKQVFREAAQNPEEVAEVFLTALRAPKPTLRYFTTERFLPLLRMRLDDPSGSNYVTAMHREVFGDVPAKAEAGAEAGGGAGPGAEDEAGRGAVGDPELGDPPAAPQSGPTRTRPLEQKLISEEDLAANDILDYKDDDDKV
Method: To screen compounds of the disclosure for their ability to block HSD17B1 function, an enzymatic blocking assay was performed. For the assay, HSD17B1 activity was measured by detecting NADH formation from oxidation of Estradiol using a NADH Glo luminescence assay (Promega, #Cat. No. G9062). […] Compounds were incubated with the enzyme for 30 minutes at room temperature. […] DMSO at a concentration of 0.5% was used as a negative control and a ‘no substrate’ control was used a positive control in the assay. Detection reagent was then added as per manufacturer's instructions, and the plate was subsequently incubated in the dark for 1 hour at room temperature, NADH generated was detected in the luminescence mode on the Envision Perkin Elmer plate reader. The IC50 values were determined using Dotmatics analysis software.

HSD17B2 = HSD17B2 (Homo sapiens (Human), UniProt P37059); assay: HSD17B2 enzymatic blocking assay; details: 1.8 μM Estradiol, 650 μM NAD; read-out: Inhibition of HSD17B2 IC50
HSD17B2, sequence (P37059 other isoform, or with tags, fused parts or gaps): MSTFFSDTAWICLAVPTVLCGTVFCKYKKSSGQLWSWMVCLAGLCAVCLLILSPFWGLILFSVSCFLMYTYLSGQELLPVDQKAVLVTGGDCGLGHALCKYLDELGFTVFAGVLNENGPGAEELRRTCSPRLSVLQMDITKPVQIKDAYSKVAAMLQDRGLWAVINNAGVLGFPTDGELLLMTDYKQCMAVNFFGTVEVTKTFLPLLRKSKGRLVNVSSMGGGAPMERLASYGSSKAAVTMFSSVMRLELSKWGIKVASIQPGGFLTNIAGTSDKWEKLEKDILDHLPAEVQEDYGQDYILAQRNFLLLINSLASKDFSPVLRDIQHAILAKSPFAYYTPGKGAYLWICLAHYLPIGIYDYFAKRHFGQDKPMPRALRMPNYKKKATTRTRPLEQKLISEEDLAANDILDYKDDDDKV
In short: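 Mammalian-expressed enzyme at 2 ng/μL in 50 mM Tris-HCl pH 7.5 with detergents/BSA, preincubated 15 min at 20° C. with compound (10-point titration). Reaction with 1.8 μM estradiol and 650 μM NAD ran 45 min at 20° C.; NADH measured by NADH-Glo luminescence and IC50 derived.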

HSD17B13, sequence (Q7Z5P4 other isoform, or with tags, fused parts or gaps): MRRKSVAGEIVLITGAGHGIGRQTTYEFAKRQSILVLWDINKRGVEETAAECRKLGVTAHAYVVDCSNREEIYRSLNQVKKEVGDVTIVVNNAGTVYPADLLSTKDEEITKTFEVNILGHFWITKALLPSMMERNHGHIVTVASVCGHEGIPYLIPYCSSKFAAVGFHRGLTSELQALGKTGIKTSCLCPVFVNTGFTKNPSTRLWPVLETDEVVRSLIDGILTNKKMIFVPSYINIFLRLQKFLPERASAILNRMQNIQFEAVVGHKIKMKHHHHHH

IC50 (HSD17B13) | IC50 (HSD17B1) | IC50 (HSD17B2) | Structure (SMILES)
0.02 µM | 2.67 µM | 14.8 µM | Cc1ccc2c(c1)Oc1cc(C)ccc1C2NC(=O)c1cc(Cc2ccccc2)c(C(F)(F)F)[nH]c1=O [Compound 500, 5-benzyl-N-(3,6-dimethyl-9H-xanthen-9-yl)-2-oxo-6-(trifluoromethyl)-1,2-dihydropyridine-3-carboxamide]
0.34 µM | > 30 µM | 46 µM | Cc1ccc2c(c1)Oc1cc(C)ccc1C2NC(=O)c1cc(C2=CCN(C)CC2)c(C(F)(F)F)[nH]c1=O [Compound 501, N-(3,6-dimethyl-9H-xanthen-9-yl)-1′-methyl-6-oxo-2-(trifluoromethyl)-1,1′,2′,3′,6,6′-hexahydro-[3,4′-bipyridine]-5-carboxamide]
0.06 µM | 19.7 µM | 39.4 µM | Cc1ccc2c(c1)Oc1cc(C)ccc1C2NC(=O)c1cc(-c2ccncc2)c(C(F)(F)F)[nH]c1=O [Compound 504, N-(3,6-dimethyl-9H-xanthen-9-yl)-6-oxo-2-(trifluoromethyl)-1,6-dihydro-[3,4′-bipyridine]-5-carboxamide]
0.02 µM | 3.3 µM | 45.8 µM | Cc1ccc2c(c1)Oc1cc(C)ccc1C2NC(=O)c1cc(-c2cnccn2)c(C(F)(F)F)[nH]c1=O [Compound 508, N-(3,6-dimethyl-9H-xanthen-9-yl)-2-oxo-5-(pyrazin-2-yl)-6-(trifluoromethyl)-1,2-dihydropyridine-3-carboxamide]
0.01 µM | 3.48 µM | 11.9 µM | Cc1ccc2c(c1)Oc1cc(C)ccc1C2NC(=O)c1cc(-c2ncccn2)c(C(F)(F)F)[nH]c1=O [Compound 509, N-(3,6-dimethyl-9H-xanthen-9-yl)-2-oxo-5-(pyrimidin-2-yl)-6-(trifluoromethyl)-1,2-dihydropyridine-3-carboxamide]
0.02 µM | 2.19 µM | 5.53 µM | Cc1ccc2c(c1)Oc1cc(C)ccc1C2NC(=O)c1cc(-c2ccccn2)c(C(F)(F)F)[nH]c1=O [Compound 510, N-(3,6-dimethyl-9H-xanthen-9-yl)-6′-oxo-2′-(trifluoromethyl)-1′,6′ dihydro-[2,3′-bipyridine]-5′-carboxamide]
0.05 µM | 6.13 µM | 16.2 µM | C=CCc1cc(C(=O)NC2c3ccc(C)cc3Oc3cc(C)ccc32)c(=O)[nH]c1C(F)(F)F [Compound 511, 5-allyl-N-(3,6-dimethyl-9H-xanthen-9-yl)-2-oxo-6-(trifluoromethyl)-1,2-dihydropyridine-3-carboxamide]
1.35 µM | 7.22 µM | > 100 µM | CN1c2ccccc2C(NC(=O)c2ccc(C(F)(F)F)[nH]c2=O)c2ccccc21 [Compound 519, N-(10-methyl-9,10-dihydroacridin-9-yl)-2-oxo-6-(trifluoromethyl)-1,2-dihydropyridine-3-carboxamide]
0.02 µM | 13.7 µM | 25.3 µM | Cc1ccc2c(c1)Oc1cc(C)ccc1C2NC(=O)c1cc(CCc2ccccc2)c(C(F)(F)F)[nH]c1=O [Compound 520, N-(3,6-dimethyl-9H-xanthen-9-yl)-2-oxo-5-phenethyl-6-(trifluoromethyl)-1,2-dihydropyridine-3-carboxamide]

The remaining lines, values behind:

Structure (SMILES) | IC50 (HSD17B13) | IC50 (HSD17B1) | IC50 (HSD17B2)
Cc1ccc2c(c1)C(NC(=O)c1ccc(C(F)(F)F)[nH]c1=O)c1ccccc1-2 (stereo not drawn) [Compound 417, N-(2-methyl-9H-fluoren-9-yl)-2-oxo-6-(trifluoromethyl)-1,2-dihydropyridine-3-carboxamide] | 0.1 µM | 13.5 µM | 47.9 µM
CNc1cccc(C(NC(=O)c2ccc(C(F)(F)F)[nH]c2=O)c2ccc(C)cc2)c1 (stereo not drawn) [Compound 419, N-((3-(methylamino)phenyl)(p-tolyl)methyl)-2-oxo-6-(trifluoromethyl)-1,2-dihydropyridine-3-carboxamide] | 0.63 µM | > 30 µM | > 100 µM
Cc1ccc(C(NC(=O)c2ccc(C(F)(F)F)[nH]c2=O)C2CCCCC2)cc1 (stereo not drawn) [Compound 421, N-(cyclohexyl(p-tolyl)methyl)-2-oxo-6-(trifluoromethyl)-1,2-dihydropyridine-3-carboxamide] | 0.36 µM | 25.1 µM | 11.3 µM
Cc1ccc(C(CC2CCCCC2)NC(=O)c2ccc(C(F)(F)F)[nH]c2=O)cc1 (stereo not drawn) [Compound 422, N-(2-cyclohexyl-1-(p-tolyl)ethyl)-2-oxo-6-(trifluoromethyl)-1,2-dihydropyridine-3-carboxamide] | 0.16 µM | 10.7 µM | 17.3 µM
Cc1ccc2c(c1)Oc1cc(C)ccc1C2NC(=O)c1cc(N2CCN(C)CC2)c(C(F)(F)F)[nH]c1=O [Compound 435, N-(3,6-dimethyl-9H-xanthen-9-yl)-5-(4-methylpiperazin-1-yl)-2-oxo-6-(trifluoromethyl)-1,2-dihydropyridine-3-carboxamide] | 0.11 µM | 23.5 µM | 59.4 µM
Cc1ccc2c(c1)Oc1cc(C)ccc1C2NC(=O)c1cc(N2CCCCC2)c(C(F)(F)F)[nH]c1=O [Compound 436, N-(3,6-dimethyl-9H-xanthen-9-yl)-2-oxo-5-(piperidin-1-yl)-6-(trifluoromethyl)-1,2-dihydropyridine-3-carboxamide] | 0.09 µM | 6.19 µM | 27.3 µM
Cc1ccc2c(c1)Oc1cc(C)ccc1C2NC(=O)c1cc(N2CCOCC2)c(C(F)(F)F)[nH]c1=O [Compound 438, N-(3,6-dimethyl-9H-xanthen-9-yl)-5-morpholino-2-oxo-6-(trifluoromethyl)-1,2-dihydropyridine-3-carboxamide] | 0.05 µM | 10.7 µM | 23.5 µM
CSc1cccc(C(NC(=O)c2ccc(C(F)(F)F)[nH]c2=O)c2ccc(C)cc2)c1 (stereo not drawn) [Compound 445, N-((3-(methylthio)phenyl)(p-tolyl)methyl)-2-oxo-6-(trifluoromethyl)-1,2-dihydropyridine-3-carboxamide] | 0.23 µM | 14.8 µM | 42.9 µM
Cc1ccc2c(c1)Oc1cc(C)ccc1C2NC(=O)c1cc(C2CCCCC2)c(C(F)(F)F)[nH]c1=O [Compound 460, 5-cyclohexyl-N-(3,6-dimethyl-9H-xanthen-9-yl)-2-oxo-6-(trifluoromethyl)-1,2-dihydropyridine-3-carboxamide] | 0.03 µM | 12.9 µM | 25 µM
Cc1ccc2c(c1)Oc1cc(C)ccc1C2NC(=O)c1cc(C2CCOCC2)c(C(F)(F)F)[nH]c1=O [Compound 461, N-(3,6-dimethyl-9H-xanthen-9-yl)-2-oxo-5-(tetrahydro-2H-pyran-4-yl)-6-(trifluoromethyl)-1,2-dihydropyridine-3-carboxamide] | 0.04 µM | 7.64 µM | 45.4 µM
Cc1ccc2c(c1)Sc1cc(C)ccc1C2NC(=O)c1cc(-c2ccncc2)c(C(F)(F)F)[nH]c1=O [Compound 495, N-(3,6-dimethyl-9H-thioxanthen-9-yl)-6-oxo-2-(trifluoromethyl)-1,6-dihydro-[3,4′-bipyridine]-5-carboxamide] | 0.03 µM | 2.04 µM | 19.7 µM
Cc1ccc2c(c1)Oc1cc(C)ccc1C2NC(=O)c1cc(-c2cncnc2)c(C(F)(F)F)[nH]c1=O [Compound 499, N-(3,6-dimethyl-9H-xanthen-9-yl)-2-oxo-5-(pyrimidin-5-yl)-6-(trifluoromethyl)-1,2-dihydropyridine-3-carboxamide] | 0.03 µM | 4.86 µM | 9.8 µM
